The compounds below were run against TrkA (Homo sapiens (Human), UniProt P04629) (assay: TrkA Omnia Assay). Details: averaged IC50; 20 nM enzyme, 500 μM ATP, 10 μM peptide substrate.
Format: biochemical
In short: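 Recombinant TrkA (20 nM) preincubated 10 min at ambient temperature with compound, then Omnia Tyr Peptide #4 (10 μM) and ATP (500 μM) added in 25 mM MOPS pH 7.5, 5 mM MgCl2, 0.005% Triton X-100. Fluorescence (ex 360/em 485 nm) followed continuously for 70 min; IC50 from initial rates by 4- or 5-parameter logistic fit.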

Sequence of TrkA (P04629 33-796): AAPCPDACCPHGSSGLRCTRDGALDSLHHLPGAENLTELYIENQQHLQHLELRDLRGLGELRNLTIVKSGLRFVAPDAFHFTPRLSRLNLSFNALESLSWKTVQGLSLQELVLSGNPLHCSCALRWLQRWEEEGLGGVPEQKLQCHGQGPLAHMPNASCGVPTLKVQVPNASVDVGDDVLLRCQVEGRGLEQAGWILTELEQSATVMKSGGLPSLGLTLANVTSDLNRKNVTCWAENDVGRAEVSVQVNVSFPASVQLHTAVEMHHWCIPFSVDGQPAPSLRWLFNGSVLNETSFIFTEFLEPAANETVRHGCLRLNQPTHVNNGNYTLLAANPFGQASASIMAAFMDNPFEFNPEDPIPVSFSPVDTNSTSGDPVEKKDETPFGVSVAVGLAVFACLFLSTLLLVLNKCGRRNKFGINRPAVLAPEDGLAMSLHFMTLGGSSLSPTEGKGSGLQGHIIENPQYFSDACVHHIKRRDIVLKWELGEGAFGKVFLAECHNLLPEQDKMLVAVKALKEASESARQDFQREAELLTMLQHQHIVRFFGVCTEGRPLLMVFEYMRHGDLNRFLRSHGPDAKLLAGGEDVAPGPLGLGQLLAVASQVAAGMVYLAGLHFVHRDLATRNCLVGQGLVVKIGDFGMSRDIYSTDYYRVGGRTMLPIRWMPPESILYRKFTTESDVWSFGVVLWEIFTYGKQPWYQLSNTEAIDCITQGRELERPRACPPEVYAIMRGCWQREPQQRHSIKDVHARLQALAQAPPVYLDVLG

Row | SMILES | IC50
1 | COCCN1C[C@@H](NC(=O)Nc2c(C)c(-c3cnn(C)c3)nn2-c2cncc(C)c2)[C@H](c2ccc(F)c(F)c2)C1 [Example 496, 1-((3S,4R)-4-(3,4-difluorophenyvl)-1-(2-methoxyethyl)pyrrolidin-3-yl)-3-(1′,4-dimethyl-1-(5-methylpyridin-3-yl)-1H, 1′H-[3,4′-bipyrazol]-5-yl)urea] | 100 to 1000 nM
2 | COCCN1C[C@@H](NC(=O)Nc2c(C)c(-c3cnn(C)c3)nn2-c2cncc(Cl)c2)[C@H](c2ccc(F)c(F)c2)C1 [Example 497, 1-(1-(5-chloropyridin-3-yl)-1′,4-dimethyl-1H, 1′H-[3,4′-bipyrazol]-5-yl)-3-((3 S,4R)-4-(3,4-difluorophenyl)-1-(2-methoxyethyl)pyrrolidin-3-yl)urea] | 100 to 1000 nM
3 | COCCN1C[C@@H](NC(=O)Nc2c(C)c(-c3ccc(=O)n(C)c3)nn2-c2ccccc2)[C@H](c2ccc(F)c(F)c2)C1 [Example 506, 1-((3S,4R)-4-(3,4-difluorophenyl)-1-(2-methoxyethyl)pyrrolidin-3-yl)-3-(4-methyl-3-(1-methyl-6-oxo-1,6-dihydropyridin-3-yl)-1-phenyl-1H-pyrazol-5-yl)urea] | < 100 nM
4 | COCCN1C[C@@H](NC(=O)Nc2c(C)c(-c3cnn(C)c3C)nn2-c2ccccc2)[C@H](c2ccc(F)c(F)c2)C1 [Example 507, 1-((3S,4R)-4-(3,4-difluorophenyl)-1-(2-methoxyethyl)pyrrolidin-3-yl)-3-(1′,4,5′-trimethyl-1-phenyl-1H,1′H-[3,4′-bipyrazol]-5-yl)urea] | < 100 nM
5 | COCCN1C[C@@H](NC(=O)Nc2c(C)c(-c3cn(C)nc3C)nn2-c2ccccc2)[C@H](c2ccc(F)c(F)c2)C1 [Example 508, 1-((3S,4R)-4-(3,4-difluorophenyl)-1-(2-methoxyethyl)pyrrolidin-3-yl)-3-(1′,3′,4-trimethyl-1-phenyl-1H,1′H-[3,4′-bipyrazol]-5-yl)urea] | < 100 nM
6 | COCCN1C[C@@H](NC(=O)Nc2c(C)c(-c3cnn(C4CC4)c3)nn2-c2ccccc2)[C@H](c2ccc(F)c(F)c2)C1 [Example 509, 1-(1′-cyclopropyl-4-methyl-1-phenyl-1H,1′H-[3,4′-bipyrazol]-5-yl)-3-((3S,4R)-4-(3,4-difluorophenyl)-1-(2-methoxyethyl)pyrrolidin-3-yl)urea] | < 100 nM
7 | COCCN1C[C@@H](NC(=O)Nc2c(C)c(-c3cnc(C)s3)nn2-c2ccccc2)[C@H](c2ccc(F)c(F)c2)C1 [Example 510, 1-((3S,4R)-4-(3,4-difluorophenyl)-1-(2-methoxyethyl)pyrrolidin-3-yl)-3-(4-methyl-3-(2-methylthiazol-5-yl)-1-phenyl-1H-pyrazol-5-yl)urea] | < 100 nM
8 | COCCN1C[C@@H](NC(=O)Nc2c(C)c(-c3cnc(C)nc3)nn2-c2ccccc2)[C@H](c2ccc(F)c(F)c2)C1 [Example 511, 1-((3S,4R)-4-(3,4-difluorophenyl)-1-(2-methoxyethyl)pyrrolidin-3-yl)-3-(4-methyl-3-(2-methylpyrimidin-5-yl)-1-phenyl-1H-pyrazol-5-yl)urea] | < 100 nM
9 | COCCN1C[C@@H](NC(=O)Nc2c(C)c(-c3cnc(N)nc3)nn2-c2ccccc2)[C@H](c2ccc(F)c(F)c2)C1 [Example 512, 1-(3-(2-aminopyrimidin-5-yl)-4-methyl-1-phenyl-1H-pyrazol-5-yl)-3-((3S,4R)-4-(3,4-difluorophenyl)-1-(2-methoxyethyl)pyrrolidin-3-yl)urea] | < 100 nM
10 | COCCN1C[C@@H](NC(=O)Nc2c(C)c(-c3sc(C)nc3C)nn2-c2ccccc2)[C@H](c2ccc(F)c(F)c2)C1 [Example 513, 1-((3S,4R)-4-(3,4-difluorophenyl)-1-(2-methoxyethyl)pyrrolidin-3-yl)-3-(3-(2,4-dimethylthiazol-5-yl)-4-methyl-1-phenyl-1H-pyrazol-5-yl)urea] | < 100 nM
11 | COCCN1C[C@@H](NC(=O)Nc2c(C)c(-c3cc(C)nc(C)c3)nn2-c2ccccc2)[C@H](c2ccc(F)c(F)c2)C1 [Example 514, 1-((3S,4R)-4-(3,4-difluorophenyl)-1-(2-methoxyethyl)pyrrolidin-3-yl)-3-(3-(2,6-dimethylpyridin-4-yl)-4-methyl-1-phenyl-1H-pyrazol-5-yl)urea] | < 100 nM
12 | COCCN1C[C@@H](NC(=O)Nc2c(C)c(-c3ccc(N)nc3)nn2-c2ccccc2)[C@H](c2ccc(F)c(F)c2)C1 [Example 515, 1-(3-(6-aminopyridin-3-yl)-4-methyl-1-phenyl-1H-pyrazol-5-yl)-3-((3S,4R)-4-(3,4-difluorophenyl)-1-(2-methoxyethyl)pyrrolidin-3-yl)urea] | < 100 nM
13 | COCCN1C[C@@H](NC(=O)Nc2c(C)c(Br)nn2-c2ccccc2)[C@H](c2ccc(F)cc2)C1 [Example 516, 1-(3-bromo-4-methyl-1-phenyl-1H-pyrazol-5-yl)-3-((3S,4R)-4-(4-fluorophenyl)-1-(2-methoxyethyl)pyrrolidin-3-yl)urea] | < 100 nM

The remaining lines, values ahead:

Row | IC50 | SMILES
14 | < 100 nM | COCCN1C[C@@H](NC(=O)Nc2c(C)c(-c3ccn(C)n3)nn2-c2ccccc2)[C@H](c2ccc(F)c(F)c2)C1 [Example 491, 1-((3S,4R)-4-(3,4-difluorophenyl)-1-(2-methoxyethyl)pyrrolidin-3-yl)-3-(1′,4-dimethyl-1-phenyl-1H,1′H-[3,3′-bipyrazol]-5-yl)urea]
15 | < 100 nM | COCCN1C[C@@H](NC(=O)Nc2c(C)c(-c3ccn(C)n3)nn2-c2ccccc2)[C@H](c2ccc(F)cc2)C1 [Example 492, 1-(1′,4-dimethyl-1-phenyl-1H, 1′H-[3,3′-bipyrazol]-5-yl)-3-((3S,4R)-4-(4-fluorophenyl)-1-(2-methoxyethyl)pyrrolidin-3-yl)urea]
16 | < 100 nM | COCCN1C[C@@H](NC(=O)Nc2c(C)c(-c3ccn(C)n3)nn2-c2ccccc2)[C@H](c2cc(F)cc(F)c2)C1 [Example 493, 1-((3S,4R)-4-(3,5-difluorophenyvl)-1-(2-methoxyethyl)pyrrolidin-3-yl)-3-(1′,4-dimethyl-1-phenyl-1H,1′H-[3,3′-bipyrazol]-5-yl)urea]
17 | < 100 nM | COCCN1C[C@@H](NC(=O)Nc2c(C)c(-c3ccnn3C)nn2-c2ccccc2)[C@H](c2ccc(F)c(F)c2)C1 [Example 494, 1-((3S,4R)-4-(3,4-difluorophenyl)-1-(2-methoxyethyl)pyrrolidin-3-yl)-3-(2′,4-dimethyl-1-phenyl-1H,2′H-[3,3′-bipyrazol]-5-yl)urea]
18 | < 100 nM | COCCN1C[C@@H](NC(=O)Nc2c(C)c(-c3cnn(C)c3)nn2-c2cncc(F)c2)[C@H](c2ccc(F)c(F)c2)C1 [Example 495, 1-((3S,4R)-4-(3,4-difluorophenyl)-1-(2-methoxyethyl)pyrrolidin-3-yl)-3-(1-(5-fluoropyridin-3-yl)-1′,4-dimethyl-1H, 1′H-[3,4′-bipyrazol]-5-yl)urea]
19 | < 100 nM | COCCN1C[C@@H](NC(=O)Nc2c(C)c(-c3cnn(C(OCC(F)(F)F)C(F)(F)F)c3)nn2-c2ccccc2)[C@H](c2ccc(F)c(F)c2)C1 (stereo partly drawn) [Example 498, 1-((3S,4R)-4-(3,4-difluorophenyvl)-1-(2-methoxyethyl)pyrrolidin-3-yl)-3-(4-methyl-1-phenyl-1′-(2,2,2-trifluoro-1-(2,2,2-trifluoroethoxy)ethyl)-1H,1′H-[3,4′-bipyrazol]-5-yl)urea]
20 | < 100 nM | COCCN1C[C@@H](NC(=O)Nc2c(C)c(-c3cnn(CC(F)(F)F)c3)nn2-c2ccccc2)[C@H](c2ccc(F)c(F)c2)C1 [Example 499, 1-((3S,4R)-4-(3,4-difluorophenyl)-1-(2-methoxyethyl)pyrrolidin-3-yl)-3-(4-methyl-1-phenyl-1′-(2,2,2-trifluoroethyl)-1H, 1′H-[3,4′-bipyrazol]-5-yl)urea]
21 | < 100 nM | COCCN1C[C@@H](NC(=O)Nc2c(C)c(-c3cnn(CC4CC4)c3)nn2-c2ccccc2)[C@H](c2ccc(F)c(F)c2)C1 [Example 500, 1-(1′-(cyclopropylmethyl)-4-methyl-l-phenyl-1H, 1′H-[3,4′-bipyrazol]-5-yl)-3-((3S,4R)-4-(3,4-difluorophenyl)-1-(2-methoxyethyl)pyrrolidin-3-yl)urea]
22 | < 100 nM | COCCN1C[C@@H](NC(=O)Nc2c(C)c(-c3cnn(C(=O)C4CC4)c3)nn2-c2ccccc2)[C@H](c2ccc(F)c(F)c2)C1 [Example 501, 1-(1′-(cyclopropanecarbonyl)-4-methyl-1-phenyl-1H,1′H-[3,4′-bipyrazol]-5-yl)-3-((3S,4R)-4-(3,4-difluorophenyl)-1-(2-methoxyethyl)pyrrolidin-3-yl)urea]
23 | < 100 nM | COCCN1C[C@@H](NC(=O)Nc2c(C)c(-c3cnn(S(C)(=O)=O)c3)nn2-c2ccccc2)[C@H](c2ccc(F)c(F)c2)C1 [Example 502, 1-((3S,4R)-4-(3,4-difluorophenyl)-1-(2-methoxyethyl)pyrrolidin-3-yl)-3-(4-methyl-1′-(methylsulfonyl)-1-phenyl-1H, 1′H-[3,4′-bipyrazol]-5-yl)urea]
24 | < 100 nM | COCCN1C[C@@H](NC(=O)Nc2c(C)c(-c3cnn(C(C)C)c3)nn2-c2ccccc2)[C@H](c2ccc(F)c(F)c2)C1 [Example 503, 1-((3S,4R)-4-(3,4-difluorophenyvl)-1-(2-methoxyethyl)pyrrolidin-3-yl)-3-(1′-isopropyl-4-methyl-1-phenyl-1H, 1′H-[3,4′-bipyrazol]-5-yl)urea]
25 | < 100 nM | COCCN1C[C@@H](NC(=O)Nc2c(C)c(-c3cncnc3)nn2-c2ccccc2)[C@H](c2ccc(F)c(F)c2)C1 [Example 504, 1-((3S,4R)-4-(3,4-difluorophenyl)-1-(2-methoxyethyl)pyrrolidin-3-yl)-3-(4-methyl-1-phenyl-3-(pyrimidin-5-yl)-1H-pyrazol-5-yl)urea]
26 | < 100 nM | COCCN1C[C@@H](NC(=O)Nc2c(C)c(-c3ccn(C)c(=O)c3)nn2-c2ccccc2)[C@H](c2ccc(F)c(F)c2)C1 [Example 505, 1-((3S,4R)-4-(3,4-difluorophenyl)-1-(2-methoxyethyl)pyrrolidin-3-yl)-3-(4-methyl-3-(1-methyl-2-oxo-1,2-dihydropyridin-4-yl)-1-phenyl-1H-pyrazol-5-yl)urea]

Source: patent US10323022B2, “Pyrrolidinyl urea, pyrrolidinyl thiourea and pyrrolidinyl guanidine compounds as TrkA kinase inhibitors” (Array BioPharma Inc., priority 2011, dated 2019)
